Experimental data: patent publication US20240083853A1, “HSD17B13 INHIBITORS AND USES THEREOF” (FL2022-001, Inc., priority 2020, published 2024)

What follows are compounds tested against T1, Recombinant human HSD17B13 enzyme (Homo sapiens, UniProt Q7Z5P4) (assay: HSD17b13 NAD(P)H-Glo biochemical assay). Settings: 50 uM estradiol, 1 mM NAD+, NAD(P)H-Glo luminescence; read-out: HSD17β13 IC50.
T1 sequence (Q7Z5P4 20-300): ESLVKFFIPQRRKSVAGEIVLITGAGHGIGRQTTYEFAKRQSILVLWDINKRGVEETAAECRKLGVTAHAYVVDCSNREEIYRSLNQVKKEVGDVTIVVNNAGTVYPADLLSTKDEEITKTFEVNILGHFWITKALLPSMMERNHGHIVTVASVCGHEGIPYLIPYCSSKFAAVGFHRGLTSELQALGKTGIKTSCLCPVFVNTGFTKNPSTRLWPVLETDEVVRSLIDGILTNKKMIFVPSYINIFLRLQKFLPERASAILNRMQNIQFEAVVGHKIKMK
Method in brief: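 Recombinant human HSD17B13 in 20 mM Tris pH7.4 with 0.002% Tween-20 and 0.02% BSA was preincubated with inhibitor for 20 minutes at RT. The reaction ran 3 hours at 37° C with 50 uM estradiol and 1 mM NAD+ (final). NADH formed was detected by NAD(P)H-Glo luminescence after 1 hour at RT.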
`Oc1c(F)cc2cnn(-c3ccc(-c4ccc(Cl)cc4)cn3)c2c1F` [Compound 18.3, 1-(5-(4-Chlorophenyl)pyridin-2-yl)-5,7-difluoro-1H-indazol-6-ol] was tested, and the IC50 was < 100 nM.
In the case of `Oc1c(F)cc2cnn(-c3ncc(-c4ccc(Cl)cc4)cn3)c2c1F` [Compound 18.4, 1-(5-(4-Chlorophenyl)pyrimidin-2-yl)-5,7-difluoro-1H-indazol-6-ol], the IC50 is reported as < 100 nM.
Compound `CS(=O)(=O)N1CCN(c2ccc(-n3ncc4cc(F)c(O)c(F)c43)cc2)CC1` [Compound 19, 5,7-Difluoro-1-(4-(4-(methylsulfonyl)piperazin-1-yl)phenyl)-1H-indazol-6-ol] has an IC50 of 100 to 1000 nM.
For `CS(=O)(=O)N1CCN(c2ccc(-n3ncc4cc(F)c(O)c(F)c43)cc2Cl)CC1` [Compound 19.1, 1-(3-Chloro-4-(4-(methylsulfonyl)piperazin-1-yl)phenyl)-5,7-difluoro-1H-indazol-6-ol], the IC50 was < 100 nM.
For `CS(=O)(=O)N1CCN(c2ccc(-n3ncc4cc(F)c(O)c(F)c43)c(Cl)c2)CC1` [Compound 20.1, 1-(2-Chloro-4-(4-(methylsulfonyl)piperazin-1-yl)phenyl)-5,7-difluoro-1H-indazol-6-ol], the IC50 was < 100 nM.
In the case of `Cc1cc(N2CCN(S(C)(=O)=O)CC2)ccc1-n1ncc2cc(F)c(O)c(F)c21` [Compound 20.2, 5,7-Difluoro-1-(2-methyl-4-(4-(methylsulfonyl)piperazin-1-yl)phenyl)-1H-indazol-6-ol], the IC50 is reported as 100 to 1000 nM.
In the case of `Cc1cc(-n2ncc3cc(F)c(O)c(F)c32)ccc1N1CCN(S(C)(=O)=O)CC1` [Compound 20.3, 5,7-Difluoro-1-(3-methyl-4-(4-(methylsulfonyl)piperazin-1-yl)phenyl)-1H-indazol-6-ol], the IC50 is reported as < 100 nM.
In the case of `CC1CN(c2ccc(-n3ncc4cc(F)c(O)c(F)c43)cc2)CCO1` (centres unmarked) [Compound 20.4, 5,7-Difluoro-1-(4-(2-methylmorpholino)phenyl)-1H-indazol-6-ol], the IC50 is reported as < 100 nM.
With `CC1(C)CN(c2ccc(-n3ncc4cc(F)c(O)c(F)c43)cc2)CCO1` [Compound 20.5, 1-(4-(2,2-Dimethylmorpholino)phenyl)-5,7-difluoro-1H-indazol-6-ol] the IC50 was < 100 nM.
`CC1(C)COCCN1c1ccc(-n2ncc3cc(F)c(O)c(F)c32)cc1` [Compound 20.6, 1-(4-(3,3-Dimethylmorpholino)phenyl)-5,7-difluoro-1H-indazol-6-ol] was tested, and the IC50 was 100 to 1000 nM.
`C[C@@H]1CN(c2ccc(-n3ncc4cc(F)c(O)c(F)c43)cc2)C[C@H](C)O1` [Compound 20.7, 1-(4-(cis-2,6-Dimethylmorpholino)phenyl)-5,7-difluoro-1H-indazol-6-ol] was tested, and the IC50 was < 100 nM.
For `CS(=O)(=O)N1CCN(c2ccc(-n3ncc4cc(F)c(O)c(F)c43)c(F)c2)CC1` [Compound 20.8, 5,7-Difluoro-1-(2-fluoro-4-(4-(methylsulfonyl)piperazin-1-yl)phenyl)-1H-indazol-6-ol], the IC50 was < 100 nM.
For `CC(C)C1CCN(c2ccc(-n3ncc4cc(F)c(O)c(F)c43)cc2)CC1` [Compound 20.9, 5,7-Difluoro-1-(4-(4-isopropylpiperidin-1-yl)phenyl)-1H-indazol-6-ol], the IC50 was < 100 nM.
With `Oc1c(F)cc2nnn(-c3ccc(N4CC5(CCOCC5)C4)cc3)c2c1F` [Compound 20.10, 1-(4-(7-Oxa-2-azaspiro[3.5]nonan-2-yl)phenyl)-5,7-difluoro-1H-benzo[d][1,2,3]triazol-6-ol] the IC50 was < 100 nM.
`Oc1c(F)cc2ncn(-c3ccc(N4CC5(CCOCC5)C4)cc3)c2c1F` [Compound 20.11, 1-(4-(7-Oxa-2-azaspiro[3.5]nonan-2-yl)phenyl)-5,7-difluoro-1H-benzo[d]imidazol-6-ol] showed an IC50 of 100 to 1000 nM.
`CC1(C)CN(c2ccc(-n3ncc4cc(F)c(O)c(F)c43)cc2)CC(C)(C)O1` [Compound 20.12, 5,7-Difluoro-1-(4-(2,2,6,6-tetramethylmorpholino)phenyl)-1H-indazol-6-ol] was tested, and the IC50 was < 100 nM.
For `CS(=O)(=O)C1CN(c2ccc(-n3nnc4cc(F)c(O)c(F)c43)cc2)C1` [Compound 20.14, 5,7-Difluoro-1-(4-(3-(methylsulfonyl)azetidin-1-yl)phenyl)-1H-benzo[d][1,2,3]triazol-6-ol], the IC50 was 100 to 1000 nM.
Work on `CS(=O)(=O)C1CN(c2ccc(-n3cnc4cc(F)c(O)c(F)c43)cc2)C1` [Compound 20.15, 5,7-Difluoro-1-(4-(3-(methylsulfonyl)azetidin-1-yl)phenyl)-1H-benzo[d]imidazol-6-ol] yielded an IC50 of 1000 to 30000 nM.
Work on `CC1(CO)CN(c2ccc(-n3ncc4cc(F)c(O)c(F)c43)cc2)C1` [Compound 20.16, 5,7-Difluoro-1-(4-(3-(hydroxymethyl)-3-methylazetidin-1-yl)phenyl)-1H-indazol-6-ol] yielded an IC50 of 100 to 1000 nM.
With `CC1(CO)CCN(c2ccc(-n3ncc4cc(F)c(O)c(F)c43)cc2)CC1` [Compound 20.17, 5,7-Difluoro-1-(4-(4-(hydroxymethyl)-4-methylpiperidin-1-yl)phenyl)-1H-indazol-6-ol] the IC50 was 100 to 1000 nM.
`COCC1(C)CCN(c2ccc(-n3ncc4cc(F)c(O)c(F)c43)cc2)CC1` [Compound 20.18, 5,7-Difluoro-1-(4-(4-(methoxymethyl)-4-methylpiperidin-1-yl)phenyl)-1H-indazol-6-ol] was tested, and the IC50 was < 100 nM.
In the case of `COC1(C)CN(c2ccc(-n3ncc4cc(F)c(O)c(F)c43)cc2)C1` [Compound 20.19, 5,7-Difluoro-1-(4-(3-methoxy-3-methylazetidin-1-yl)phenyl)-1H-indazol-6-ol], the IC50 is reported as < 100 nM.
With `COC1(C)CCN(c2ccc(-n3ncc4cc(F)c(O)c(F)c43)cc2)CC1` [Compound 20.20, 5,7-Difluoro-1-(4-(4-methoxy-4-methylpiperidin-1-yl)phenyl)-1H-indazol-6-ol] the IC50 was < 100 nM.
In the case of `CS(=O)(=O)N1CC2(CCN(c3ccc(-n4ncc5cc(F)c(O)c(F)c54)cc3)CC2)C1` [Compound 20.21, 5,7-Difluoro-1-(4-(2-(methylsulfonyl)-2,7-diazaspiro[3.5]nonan-7-yl)phenyl)-1H-indazol-6-ol], the IC50 is reported as 100 to 1000 nM.
`CS(=O)(=O)N1CCC2(CC1)CN(c1ccc(-n3ncc4cc(F)c(O)c(F)c43)cc1)C2` [Compound 20.22, 5,7-Difluoro-1-(4-(7-(methylsulfonyl)-2,7-diazaspiro[3.5]nonan-2-yl)phenyl)-1H-indazol-6-ol] gave an IC50 of 100 to 1000 nM.
`CS(=O)(=O)N1CC2(CN(c3ccc(-n4ncc5cc(F)c(O)c(F)c54)cc3)C2)C1` [Compound 20.23, 5,7-Difluoro-1-(4-(6-(methylsulfonyl)-2,6-diazaspiro[3.3]heptan-2-yl)phenyl)-1H-indazol-6-ol] showed an IC50 of 100 to 1000 nM.
With `CC1(C)CCN(c2ccc(-n3nnc4cc(F)c(O)c(F)c43)cc2)CC1` [Compound 21, 1-(4-(4,4-Dimethylpiperidin-1-yl)phenyl)-5,7-difluoro-1H-benzo[d][1,2,3]triazol-6-ol] the IC50 was < 100 nM.
`CS(=O)(=O)NC1CN(c2ccc(-n3ncc4cc(F)c(O)cc43)cc2)C1` [Compound 21.1, N-(1-(4-(5-Fluoro-6-hydroxy-1H-indazol-1-yl)phenyl)azetidin-3-yl)methanesulfonamide] was tested, and the IC50 was 1000 to 30000 nM.
`CS(=O)(=O)N1CCN(c2ccc(-n3ncc4cc(F)c(O)cc43)cc2)CC1` [Compound 21.2, 5-Fluoro-1-(4-(4-(methylsulfonyl)piperazin-1-yl)phenyl)-1H-indazol-6-ol] showed an IC50 of 1000 to 30000 nM.
With `CS(=O)(=O)N1CCN(c2ccc(-n3nnc4cc(F)c(O)c(F)c43)cc2)CC1` [Compound 21.3, 5,7-Difluoro-1-(4-(4-(methylsulfonyl)piperazin-1-yl)phenyl)-1H-benzo[d][1,2,3]triazol-6-ol] the IC50 was < 100 nM.
With `CS(=O)(=O)N1CCN(c2ccc(-n3cnc4cc(F)c(O)c(F)c43)cc2)CC1` [Compound 21.4, 5,7-Difluoro-1-(4-(4-(methylsulfonyl)piperazin-1-yl)phenyl)-1H-benzo[d]imidazol-6-ol] the IC50 was 100 to 1000 nM.
For `CC1(C)CCN(c2ccc(-n3cnc4cc(F)c(O)c(F)c43)cc2)CC1` [Compound 21.5, 1-(4-(4,4-Dimethylpiperidin-1-yl)phenyl)-5,7-difluoro-1H-benzo[d]imidazol-6-ol], the IC50 was < 100 nM.
For `Cn1c(=O)n(-c2ccc(N3CCC(C)(C)CC3)cc2)c2c(F)c(O)c(F)cc21` [Compound 21.6, 3-(4-(4,4-Dimethylpiperidin-1-yl)phenyl)-4,6-difluoro-5-hydroxy-1-methyl-1H-benzo[d]imidazol-2(3H)-one], the IC50 was < 100 nM.
`CC1(C)CCN(c2ccc(-n3nnc4cc(F)c(O)cc43)cc2)CC1` [Compound 21.7, 1-(4-(4,4-Dimethylpiperidin-1-yl)phenyl)-5-fluoro-1H-benzo[d][1,2,3]triazol-6-ol] was tested, and the IC50 was < 100 nM.
With `CC1(C)CCN(c2ccc(-n3c(Cl)nc4cc(F)c(O)c(F)c43)cc2)CC1` [Compound 21.9, 2-Chloro-1-(4-(4,4-dimethylpiperidin-1-yl)phenyl)-5,7-difluoro-1H-benzo[d]imidazol-6-ol] the IC50 was 100 to 1000 nM.
`CS(=O)(=O)N1CCN(c2ccc(-n3ncc4ccc(O)c(F)c43)cc2)CC1` [Compound 21.11, 7-Fluoro-1-(4-(4-(methylsulfonyl)piperazin-1-yl)phenyl)-1H-indazol-6-ol] gave an IC50 of 100 to 1000 nM.

Same assay, conditions: 3 h; at 10 uM compound; read-out: HSD17β13 % at 10 uM
Compound `Cc1nc2cc(F)c(O)c(F)c2n1-c1ccc(N2CCC(C)(C)CC2)cc1` [Compound 21.8, 1-(4-(4,4-Dimethylpiperidin-1-yl)phenyl)-5,7-difluoro-2-methyl-1H-benzo[d]imidazol-6-ol] has an inhibition at 10 µM of 35%.
`CC1(C)CCN(c2ccc(-n3cnc4cc(F)c(O)cc43)cc2)CC1` [Compound 21.10, 1-(4-(4,4-Dimethylpiperidin-1-yl)phenyl)-5-fluoro-1H-benzo[d]imidazol-6-ol] was tested, and the inhibition at 10 µM was 35%.
